Measured values as given in paper PMC8445441, “Elucidating the mechanism by which synthetic helper peptides sensitize Pseudomonas aeruginosa to multiple antibiotics” (PLoS Pathogens, 2021).
Where two headings read alike, the source gives them in different places. Each block holds one molecule with its values, some of them ahead of it.

Legend:
[1] = test system: clinical P. aeruginosa isolates; test: microbe, parasite or virus in culture; details: Pseudomonas aeruginosa, 18 h, antibiotic alone
How it was run: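 Broth microdilution per CLSI in MHB, two-fold drug dilutions mixed with an equal volume of bacteria at about 1 × 10^6 CFU/mL. After 18 h at 37 °C, MIC taken as the lowest concentration with no visible growth; run in triplicate.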

[2] = test system: P. aeruginosa PA14; test: microbe, parasite or virus in culture; design: MICa: MIC of the antibiotic / MICac: MIC of the antibiotic in the combination: unit not given beside the values; details: for MIC: Pseudomonas aeruginosa, PA14, 18 h, read-out: MICa: MIC of the antibiotic; for FICI / MICac: MIC of the antibiotic in the combination: strain PA14; for FICI: antibiotic + D-11 (MICb/MICbc 128/4); for MICac: MIC of the antibiotic in the combination: with D-11 at MICbc 4, unit not given
How it was run: (§1)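 MICs were determined by CLSI broth microdilution in MHB, in triplicate: two-fold drug dilutions were mixed 1:1 with bacterial suspension of ~1 × 10^6 CFU/mL and incubated 18 h at 37 °C. The MIC was the lowest concentration with no visible growth.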

[3] = test system: P. aeruginosa NR-31041; test: microbe, parasite or virus in culture; design: MICa: MIC of the antibiotic / MICac: MIC of the antibiotic in the combination: unit not given beside the values; details: for MIC: Pseudomonas aeruginosa, NR31041, 18 h, read-out: MICa: MIC of the antibiotic; for FICI / MICac: MIC of the antibiotic in the combination: strain NR-31041; for FICI: antibiotic + D-11 (MICb/MICbc 64/4); for MICac: MIC of the antibiotic in the combination: with D-11 at MICbc 4, unit not given
How it was run: as §1

[4] = test system: P. aeruginosa PAK; test: microbe, parasite or virus in culture; design: MICa: MIC of the antibiotic / MICac: MIC of the antibiotic in the combination: unit not given beside the values; details: for MIC: Pseudomonas aeruginosa, 18 h, read-out: MICa: MIC of the antibiotic; for FICI / MICac: MIC of the antibiotic in the combination: strain PAK; for FICI: antibiotic + D-11 (MICb/MICbc 64/4); for MICac: MIC of the antibiotic in the combination: with D-11 at MICbc 4, unit not given
How it was run: as §1

[5] = test system: P. aeruginosa NR-31040; test: microbe, parasite or virus in culture; design: MICa: MIC of the antibiotic / MICac: MIC of the antibiotic in the combination: unit not given beside the values; details: for FICI: antibiotic + D-11 (MICb/MICbc 128/4); for MICac: MIC of the antibiotic in the combination: with D-11 at MICbc 4
How it was run: as §1

[6] = test system: P. aeruginosa ATCC27853; test: microbe, parasite or virus in culture; design: MICa: MIC of the antibiotic / MICac: MIC of the antibiotic in the combination: unit not given beside the values; details: for MIC: Pseudomonas aeruginosa, ATCC27853, 18 h, read-out: MICa: MIC of the antibiotic; for FICI / MICac: MIC of the antibiotic in the combination: strain ATCC27853; for FICI: antibiotic + D-11 (MICb/MICbc 32/4); for MICac: MIC of the antibiotic in the combination: with D-11 at MICbc 4, unit not given
How it was run: as §1

[7] = test system: P. aeruginosa HM-214; details: strain HM-214; antibiotic + D-11 (MICb/MICbc 128/4)
How it was run: as §1

[8] = test system: P. aeruginosa AUMC-Pa-2; details: strain AUMC-Pa-2; antibiotic + D-11 (MICb/MICbc 64/4)
How it was run: as §1

[9] = test system: P. aeruginosa AUMC-Pa-1; details: strain AUMC-Pa-1; antibiotic + D-11 (MICb/MICbc 128/4)
How it was run: as §1

[10] = test system: P. aeruginosa AUMC-Pa-5; test: microbe, parasite or virus in culture; details: for FICI: antibiotic + D-11 (MICb/MICbc 64/4); for MICac: MIC of the antibiotic in the combination: with D-11 at MICbc 4
How it was run: as §1

[11] = test system: P. aeruginosa AUMC-Pa-4; test: microbe, parasite or virus in culture; details: for FICI: antibiotic + D-11 (MICb/MICbc 128/4); for MICac: MIC of the antibiotic in the combination: with D-11 at MICbc 4
How it was run: as §1

[12] = test system: P. aeruginosa AUMC-Pa-6; test: microbe, parasite or virus in culture; details: for FICI: antibiotic + D-11 (MICb/MICbc 64/4); for MICac: MIC of the antibiotic in the combination: with D-11 at MICbc 4
How it was run: as §1

[13] = test system: P. aeruginosa AUMC-Pa-3; test: microbe, parasite or virus in culture; details: for MIC: Pseudomonas aeruginosa, AUMCPA3, 18 h, read-out: MICa: MIC of the antibiotic; for FICI / MICac: MIC of the antibiotic in the combination: strain AUMC-Pa-3; for FICI: antibiotic + D-11 (MICb/MICbc 128/4); for MICac: MIC of the antibiotic in the combination: with D-11 at MICbc 4, unit not given
How it was run: as §1

[14] = test system: P. aeruginosa PAO1; test: microbe, parasite or virus in culture; details: PAO1; for MIC: Pseudomonas aeruginosa, PAO1, 18 h, read-out: MICa: the MIC of antibiotics, S3 Table
How it was run: as §1

[15] = read-out: Antibiotic sensibility (MIC) of clinical P. aeruginosa isolate AUMC-Pa-1, strain AUMC-Pa-1
[16] = read-out: Antibiotic sensibility (MIC) of clinical P. aeruginosa isolate AUMC-Pa-2, strain AUMC-Pa-2
[17] = read-out: Antibiotic sensibility (MIC) of clinical P. aeruginosa isolate AUMC-Pa-3, strain AUMC-Pa-3
[18] = read-out: Antibiotic sensibility (MIC) of clinical P. aeruginosa isolate AUMC-Pa-4, strain AUMC-Pa-4
[19] = read-out: Antibiotic sensibility (MIC) of clinical P. aeruginosa isolate AUMC-Pa-5, strain AUMC-Pa-5
[20] = read-out: Antibiotic sensibility (MIC) of clinical P. aeruginosa isolate AUMC-Pa-6, strain AUMC-Pa-6
[21] = read-out: Antibiotic sensibility (MIC) of clinical P. aeruginosa isolate HM-214, strain HM-214
[22] = read-out: Antibiotic sensibility (MIC) of clinical P. aeruginosa isolate NR-31040, strain NR-31040
[23] = read-out: Antibiotic sensibility (MIC) of clinical P. aeruginosa isolate NR-31041, strain NR-31041
[24] = strain NR-31040, unit not given
[25] = strain AUMC-Pa-5, unit not given
[26] = strain AUMC-Pa-4, unit not given
[27] = strain AUMC-Pa-6, unit not given
[28] = S3 Table, antibiotic + 2 μM D-11

MIC [1, 15]: > 128 µM | MIC [1, 16]: > 128 µM | MIC [1, 17]: > 128 µM | MIC [1, 18]: > 128 µM | MIC [1, 19]: > 128 µM | MIC [1, 20]: > 128 µM | MIC [1, 21]: > 128 µM | MIC [1, 22]: > 128 µM | MIC [1, 23]: > 128 µM | MIC [2]: > 128 µM | MICac: MIC of the antibiotic in the combination [2]: 8 | MIC [3]: > 128 µM | MICac: MIC of the antibiotic in the combination [3]: 4 | MIC [4]: > 128 µM | MICac: MIC of the antibiotic in the combination [4]: 2 | MIC ([5]; Pseudomonas aeruginosa, NR31040, 18 h, read-out: MICa: MIC of the antibiotic): > 128 µM | MICac: MIC of the antibiotic in the combination [5, 24]: 64 | MIC [6]: > 128 µM | MICac: MIC of the antibiotic in the combination [6]: 2 | MIC ([10]; Pseudomonas aeruginosa, AUMCPA5, 18 h, read-out: MICa: MIC of the antibiotic): > 128 µM | MICac: MIC of the antibiotic in the combination [10, 25]: >128/128 | MIC ([11]; Pseudomonas aeruginosa, AUMCPA4, 18 h, read-out: MICa: MIC of the antibiotic): > 128 µM | MICac: MIC of the antibiotic in the combination [11, 26]: >128/128 | MIC ([12]; Pseudomonas aeruginosa, AUMCPA6, 18 h, read-out: MICa: MIC of the antibiotic): > 128 µM | MICac: MIC of the antibiotic in the combination [12, 27]: >128/128 | MIC [13]: > 128 µM | MICac: MIC of the antibiotic in the combination [13]: 0.5 | reduction of the MICs ([14]; in the presence of 4 μM of D-11): 512 fold | MIC ([14]; antibiotic alone): > 128 µM | MICac: the MIC for the antibiotic in the combination ([14]; S3 Table, with 2 μM D-11): 0.5 µM | MICac: the MIC for the antibiotic in the combination ([14]; S3 Table, with 4 μM D-11): 0.5 µM
SMILES: CO[C@@H]1[C@@H](OC(N)=O)[C@@H](O)[C@H](Oc2ccc3c(O)c(NC(=O)c4ccc(O)c(CC=C(C)C)c4)c(=O)oc3c2C)OC1(C)C [Novobiocin]
FICI [2]: 0.063 | FICI [3]: 0.078 | FICI [4]: 0.070 | FICI ([5]; strain NR-31040): 0.281 | FICI [6]: 0.133 | FICI [7]: 0.531 | FICI [8]: 0.070 | FICI [9]: 0.035 | FICI ([10]; strain AUMC-Pa-5): 0.563 | FICI ([11]; strain AUMC-Pa-4): 0.531 | FICI ([12]; strain AUMC-Pa-6): 0.563 | FICI [13]: 0.033 | FICI [14, 28]: 0.064

MIC [1, 15]: 32 µM | MIC [1, 16]: 8 µM | MIC [1, 17]: 16 µM | MIC [1, 18]: 16 µM | MIC [1, 19]: 32 µM | MIC [1, 20]: 16 µM | MIC [1, 21]: 32 µM | MIC [1, 22]: 32 µM | MIC [1, 23]: 32 µM | MIC [2]: > 128 µM | MICac: MIC of the antibiotic in the combination [2]: 2 | MIC [3]: 32 µM | MICac: MIC of the antibiotic in the combination [3]: 0.25 | MIC [4]: 16 µM | MICac: MIC of the antibiotic in the combination [4]: 0.25 | MICa: MIC of the antibiotic ([5]; strain NR-31040, antibiotic alone, unit not given): 32 | MICac: MIC of the antibiotic in the combination [5, 24]: 2 | MIC [6]: 16 µM | MICac: MIC of the antibiotic in the combination [6]: 0.25 | MICa: MIC of the antibiotic ([10]; strain AUMC-Pa-5, antibiotic alone, unit not given): 32 | MICac: MIC of the antibiotic in the combination [10, 25]: 8 | MICa: MIC of the antibiotic ([11]; strain AUMC-Pa-4, antibiotic alone, unit not given): 16 | MICac: MIC of the antibiotic in the combination [11, 26]: 1 | MICa: MIC of the antibiotic ([12]; strain AUMC-Pa-6, antibiotic alone, unit not given): 16 | MICac: MIC of the antibiotic in the combination [12, 27]: 4 | MIC [13]: 16 µM | MICac: MIC of the antibiotic in the combination [13]: 0.063 | MIC ([14]; antibiotic alone): 32 µM | MICac: the MIC for the antibiotic in the combination ([14]; S3 Table, with 2 μM D-11): 0.0625 µM | MICac: the MIC for the antibiotic in the combination ([14]; S3 Table, with 4 μM D-11): 0.03125 µM | MICa: the MIC of antibiotics ([14]; S3 Table, antibiotic alone): 32 µM
SMILES: CO[C@H]1/C=C/O[C@@]2(C)Oc3c(C)c(O)c4c(c3C2=O)C2=NC3(CCN(CC(C)C)CC3)NC2=C(NC(=O)/C(C)=C\C=C\[C@H](C)[C@H](O)[C@@H](C)[C@@H](O)[C@@H](C)[C@H](OC(C)=O)[C@@H]1C)C4=O [Rifabutin]
FICI [2]: 0.039 | FICI [3]: 0.070 | FICI [4]: 0.078 | FICI ([5]; strain NR-31040): 0.094 | FICI [6]: 0.133 | FICI [7]: 0.039 | FICI [8]: 0.070 | FICI [9]: 0.039 | FICI ([10]; strain AUMC-Pa-5): 0.313 | FICI ([11]; strain AUMC-Pa-4): 0.094 | FICI ([12]; strain AUMC-Pa-6): 0.313 | FICI [13]: 0.035 | FICI [14, 28]: 0.064 | FICI ([14]; S3 Table, antibiotic + 4 μM D-11): 0.126
